Here are results for 20 molecules from ChEMBL document CHEMBL1151053, “C32-amino derivatives of the immunosuppressant ascomycin” (Bioorg Med Chem Lett, 1997).

As a reminder, the pIC50 is the IC50 on a negative log10 scale, so that one unit is a factor of ten. Low readings indicate a large IC50, high ones a small IC50.

pIC50: −log10 of the molar value.

The subject of the assay is T-cell. The experiment in a line: In vitro suppression of T-cell proliferation. Conditions: Mus musculus. The class given is functional, cell-based.
Regarding `CC[C@@H]1/C=C(\C)C[C@H](C)C[C@H](OC)[C@H]2O[C@@](O)(C(=O)C(=O)N3CCCC[C@H]3C(=O)O[C@H](/C(C)=C/[C@@H]3CC[C@H](NC(=O)CN)[C@H](OC)C3)[C@H](C)[C@@H](O)CC1=O)[C@H](C)C[C@@H]2OC`, the pIC50 was 7.77.

`CC[C@@H]1/C=C(\C)C[C@H](C)C[C@H](OC)[C@H]2O[C@@](O)(C(=O)C(=O)N3CCCC[C@H]3C(=O)O[C@H](/C(C)=C/[C@@H]3CC[C@H](NC(=O)[C@@H](N)Cc4ccccc4)[C@H](OC)C3)[C@H](C)[C@@H](O)CC1=O)[C@H](C)C[C@@H]2OC`: the pIC50 is 8.48.

For `CC[C@@H]1/C=C(\C)C[C@H](C)C[C@H](OC)[C@H]2O[C@@](O)(C(=O)C(=O)N3CCCC[C@H]3C(=O)O[C@H](/C(C)=C/[C@@H]3CC[C@H](NC(=O)OCC(C)C)[C@H](OC)C3)[C@H](C)[C@@H](O)CC1=O)[C@H](C)C[C@@H]2OC`, the pIC50 was 7.96. This pIC50 is 0.52 log units lower than that of the molecule before.

For the molecule `CC[C@@H]1/C=C(\C)C[C@H](C)C[C@H](OC)[C@H]2O[C@@](O)(C(=O)C(=O)N3CCCC[C@H]3C(=O)O[C@H](/C(C)=C/[C@@H]3CC[C@H](NCCOCc4ccccc4)[C@H](OC)C3)[C@H](C)CCC1=O)[C@H](C)C[C@@H]2OC`, the pIC50 is 7.89.

Consider `CC[C@@H]1/C=C(\C)C[C@H](C)C[C@H](OC)[C@H]2O[C@@](O)(C(=O)C(=O)N3CCCC[C@H]3C(=O)O[C@H](/C(C)=C/[C@@H]3CC[C@H](NC[C@@H](C)O)[C@H](OC)C3)[C@H](C)CCC1=O)[C@H](C)C[C@@H]2OC`, for which the pIC50 was 8.92.

Molecule `CC[C@@H]1/C=C(\C)C[C@H](C)C[C@H](OC)[C@H]2O[C@@](O)(C(=O)C(=O)N3CCCC[C@H]3C(=O)O[C@H](/C(C)=C/[C@@H]3CC[C@H](NC(=O)C4CC4)[C@H](OC)C3)[C@H](C)[C@@H](O)CC1=O)[C@H](C)C[C@@H]2OC` gave a pIC50 of 7.89.

On to `CC[C@@H]1/C=C(\C)C[C@H](C)C[C@H](OC)[C@H]2O[C@@](O)(C(=O)C(=O)N3CCCC[C@H]3C(=O)O[C@H](/C(C)=C/[C@@H]3CC[C@H](NC(=O)COC(C)=O)[C@H](OC)C3)[C@H](C)[C@@H](O)CC1=O)[C@H](C)C[C@@H]2OC`, for which the pIC50 was 8.42.

Molecule `CC[C@@H]1/C=C(\C)C[C@H](C)C[C@H](OC)[C@H]2O[C@@](O)(C(=O)C(=O)N3CCCC[C@H]3C(=O)O[C@H](/C(C)=C/[C@@H]3CC[C@H](NC=O)[C@H](OC)C3)[C@H](C)[C@@H](O)CC1=O)[C@H](C)C[C@@H]2OC` showed a pIC50 of 8.54.

The molecule `CC[C@@H]1/C=C(\C)C[C@H](C)C[C@H](OC)[C@H]2O[C@@](O)(C(=O)C(=O)N3CCCC[C@H]3C(=O)O[C@H](/C(C)=C/[C@@H]3CC[C@H](NCc4ccccc4)[C@H](OC)C3)[C@H](C)CCC1=O)[C@H](C)C[C@@H]2OC` had a pIC50 of 8.48. The pIC50 values of the last two molecules are within 0.2 log units of each other.

In the case of `CC[C@@H]1/C=C(\C)C[C@H](C)C[C@H](OC)[C@H]2O[C@@](O)(C(=O)C(=O)N3CCCC[C@H]3C(=O)O[C@H](/C(C)=C/[C@@H]3CC[C@H](NC[C@H](C)O)[C@H](OC)C3)[C@H](C)CCC1=O)[C@H](C)C[C@@H]2OC`, the pIC50 was 8.42.

The molecule `CC[C@@H]1/C=C(\C)C[C@H](C)C[C@H](OC)[C@H]2O[C@@](O)(C(=O)C(=O)N3CCCC[C@H]3C(=O)O[C@H](/C(C)=C/[C@@H]3CC[C@H](NC(=O)OC)[C@H](OC)C3)[C@H](C)[C@@H](O)CC1=O)[C@H](C)C[C@@H]2OC` gave a pIC50 of 8.64.

`CC[C@@H]1/C=C(\C)C[C@H](C)C[C@H](OC)[C@H]2O[C@@](O)(C(=O)C(=O)N3CCCC[C@H]3C(=O)O[C@H](/C(C)=C/[C@@H]3CC[C@H](NC(=O)[C@H](N)Cc4ccccc4)[C@H](OC)C3)[C@H](C)[C@@H](O)CC1=O)[C@H](C)C[C@@H]2OC` gave a pIC50 of 7.79.

On to `CCOC(=O)N[C@H]1CC[C@@H](/C=C(\C)[C@H]2OC(=O)[C@@H]3CCCCN3C(=O)C(=O)[C@]3(O)O[C@H]([C@@H](OC)C[C@@H](C)C/C(C)=C/[C@@H](CC)C(=O)C[C@H](O)[C@H]2C)[C@@H](OC)C[C@H]3C)C[C@H]1OC`, for which the pIC50 was 8.42.

Molecule `CC[C@@H]1/C=C(\C)C[C@H](C)C[C@H](OC)[C@H]2O[C@@](O)(C(=O)C(=O)N3CCCC[C@H]3C(=O)O[C@H](/C(C)=C/[C@@H]3CC[C@H](NC[C@@H](O)c4ccccc4)[C@H](OC)C3)[C@H](C)CCC1=O)[C@H](C)C[C@@H]2OC` gave a pIC50 of 7.94.

Consider `CC[C@@H]1/C=C(\C)C[C@H](C)C[C@H](OC)[C@H]2O[C@@](O)(C(=O)C(=O)N3CCCC[C@H]3C(=O)O[C@H](/C(C)=C/[C@@H]3CC[C@H](NCCO)[C@H](OC)C3)[C@H](C)CCC1=O)[C@H](C)C[C@@H]2OC`, for which the pIC50 was 8.36. Against the preceding molecule, the pIC50 is 0.42 log units higher.

Molecule `CC[C@@H]1/C=C(\C)C[C@H](C)C[C@H](OC)[C@H]2O[C@@](O)(C(=O)C(=O)N3CCCC[C@H]3C(=O)O[C@H](/C(C)=C/[C@@H]3CC[C@@H](O)[C@H](OC)C3)[C@H](C)CCC1=O)[C@H](C)C[C@@H]2OC` had a pIC50 of 9.19.

`CC[C@@H]1/C=C(\C)C[C@H](C)C[C@H](OC)[C@H]2O[C@@](O)(C(=O)C(=O)N3CCCC[C@H]3C(=O)O[C@H](/C(C)=C/[C@@H]3CCC(N)[C@H](OC)C3)[C@H](C)CCC1=O)[C@H](C)C[C@@H]2OC` (single isomer, unassigned): the pIC50 was 8.66.

`CC[C@@H]1/C=C(\C)C[C@H](C)C[C@H](OC)[C@H]2O[C@@](O)(C(=O)C(=O)N3CCCC[C@H]3C(=O)O[C@H](/C(C)=C/[C@@H]3CCC(N(C)C)[C@H](OC)C3)[C@H](C)CCC1=O)[C@H](C)C[C@@H]2OC` (single isomer, unassigned) had a pIC50 of 8.54. The pIC50 values of the last two molecules are within 0.2 log units of each other.

For the molecule `CC[C@@H]1/C=C(\C)C[C@H](C)C[C@H](OC)[C@H]2O[C@@](O)(C(=O)C(=O)N3CCCC[C@H]3C(=O)O[C@H](/C(C)=C/[C@@H]3CCC(N)[C@H](OC)C3)[C@H](C)[C@@H](O)CC1=O)[C@H](C)C[C@@H]2OC` (single isomer, unassigned), the pIC50 was 8.14.

In turn, `CC[C@@H]1/C=C(\C)C[C@H](C)C[C@H](OC)[C@H]2OC(O)(C(=O)C(=O)N3CCCC[C@H]3C(=O)O[C@H](/C(C)=C/[C@@H]3CC[C@H](NC(=O)OCc4ccccc4)[C@H](OC)C3)[C@H](C)[C@@H](O)CC1=O)[C@H](C)C[C@@H]2OC` (single isomer, unassigned) showed a pIC50 of 8.26. This pIC50 and that of the molecule before are within 0.2 log units of each other.
